ChEMBL document CHEMBL5550204, “Discovery of ZJCK-6-46: A Potent, Selective, and Orally Available Dual-Specificity Tyrosine Phosphorylation-Regulated Kinase 1A Inhibitor for the Treatment of Alzheimer's Disease” (J Med Chem, 2024)
The source made the active and inactive calls. The rule behind the calls is not given here.

How the values were obtained:
[1] = Acute toxicity in C57BL/6 mouse assessed as histopathological change in heart at 500 mg/kg,po observed after 14 days by hematoxylin-eosin staining based analysis; type: organism-based; conditions: in vivo, 336 h, time 14 day
[2] = MRT (0 to t) in Sprague-Dawley rat at 2 mg/kg,iv measured upto 24 hrs by LC-MS/MS analysis; type: ADME, organism-based; conditions: in vivo
[3] = Acute toxicity in C57BL/6 mouse assessed as histopathological change in spleen at 500 mg/kg,po observed after 14 days by hematoxylin-eosin staining based analysis; type: organism-based; conditions: in vivo, 336 h, time 14 day
[4] = target: CDK9/cyclin T1 (Homo sapiens, UniProt P50750); experiment: Inhibition of CDK9/Cyclin T1 (unknown origin) preincubated with enzyme for 10 mins followed by substrate and ATP addition measured after 60 mins by ADP-Glo reagent based assay; type: protein-complex assay
CDK9/cyclin T1, sequence (O60563 whole entry): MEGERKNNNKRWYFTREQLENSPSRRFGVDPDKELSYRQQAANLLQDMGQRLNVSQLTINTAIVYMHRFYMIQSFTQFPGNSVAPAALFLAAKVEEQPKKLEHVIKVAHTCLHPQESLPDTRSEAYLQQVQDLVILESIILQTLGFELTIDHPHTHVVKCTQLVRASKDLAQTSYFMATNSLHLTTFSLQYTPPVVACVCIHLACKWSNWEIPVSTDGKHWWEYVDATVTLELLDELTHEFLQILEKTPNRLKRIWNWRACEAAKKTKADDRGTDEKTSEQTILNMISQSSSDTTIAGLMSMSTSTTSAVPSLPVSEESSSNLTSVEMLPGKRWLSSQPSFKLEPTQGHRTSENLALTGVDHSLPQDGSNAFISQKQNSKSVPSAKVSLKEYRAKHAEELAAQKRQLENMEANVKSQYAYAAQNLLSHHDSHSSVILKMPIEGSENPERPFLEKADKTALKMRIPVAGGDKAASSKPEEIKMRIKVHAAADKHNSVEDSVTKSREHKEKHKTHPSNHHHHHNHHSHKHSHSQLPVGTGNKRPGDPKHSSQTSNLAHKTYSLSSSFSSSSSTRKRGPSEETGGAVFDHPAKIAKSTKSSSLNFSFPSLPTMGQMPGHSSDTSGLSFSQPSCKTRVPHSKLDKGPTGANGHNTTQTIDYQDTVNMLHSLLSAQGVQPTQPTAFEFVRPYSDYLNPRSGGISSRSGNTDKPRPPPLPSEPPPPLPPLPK
CDK9/cyclin T1, sequence (P50750 whole entry): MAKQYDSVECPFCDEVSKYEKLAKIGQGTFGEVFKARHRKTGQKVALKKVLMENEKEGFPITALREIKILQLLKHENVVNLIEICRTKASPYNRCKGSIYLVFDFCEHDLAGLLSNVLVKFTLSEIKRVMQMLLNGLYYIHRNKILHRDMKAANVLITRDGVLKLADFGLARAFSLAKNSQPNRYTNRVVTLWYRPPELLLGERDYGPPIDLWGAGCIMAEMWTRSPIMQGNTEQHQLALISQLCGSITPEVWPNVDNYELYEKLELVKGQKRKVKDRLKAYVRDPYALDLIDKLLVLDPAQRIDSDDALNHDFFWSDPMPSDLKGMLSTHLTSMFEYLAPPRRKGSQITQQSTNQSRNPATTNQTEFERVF

[5] = Drug concentration in Sprague-Dawley rat brain at 10 mg/kg,po measured after 2 hrs by LC-MS/MS analysis; type: ADME, organism-based; conditions: read-out: Ct
[6] = Acute toxicity in C57BL/6 mouse assessed as change in body weight at 500 mg/kg,po observed after 14 days; type: organism-based; conditions: in vivo, 336 h, time 14 day
[7] = Drug concentration in Sprague-Dawley rat plasma at 10 mg/kg,po measured after 2 hrs by LC-MS/MS analysis; type: ADME, organism-based
[8] = Toxicity in okadaic acid-induced cognitive impairment C57BL/6 mouse assessed as change in serum TBIL level at 10 to 30 mg/kg,po once daily for 2 weeks; type: organism-based; conditions: in vivo, 336 h, dose 10-30 mg/kg
[9] = target: Dual specificity tyrosine-phosphorylation-regulated kinase 4 (Homo sapiens) (UniProt Q9NR20); experiment: Inhibition of DYRK4 (unknown origin) at 1 uM preincubated with enzyme for 10 mins followed by substrate and ATP addition measured after 60 mins by ADP-Glo reagent based assay relative to control; conditions: time 70.0 min
Dual specificity tyrosine-phosphorylation-regulated kinase 4 (Homo sapiens), sequence (Q9NR20 whole entry): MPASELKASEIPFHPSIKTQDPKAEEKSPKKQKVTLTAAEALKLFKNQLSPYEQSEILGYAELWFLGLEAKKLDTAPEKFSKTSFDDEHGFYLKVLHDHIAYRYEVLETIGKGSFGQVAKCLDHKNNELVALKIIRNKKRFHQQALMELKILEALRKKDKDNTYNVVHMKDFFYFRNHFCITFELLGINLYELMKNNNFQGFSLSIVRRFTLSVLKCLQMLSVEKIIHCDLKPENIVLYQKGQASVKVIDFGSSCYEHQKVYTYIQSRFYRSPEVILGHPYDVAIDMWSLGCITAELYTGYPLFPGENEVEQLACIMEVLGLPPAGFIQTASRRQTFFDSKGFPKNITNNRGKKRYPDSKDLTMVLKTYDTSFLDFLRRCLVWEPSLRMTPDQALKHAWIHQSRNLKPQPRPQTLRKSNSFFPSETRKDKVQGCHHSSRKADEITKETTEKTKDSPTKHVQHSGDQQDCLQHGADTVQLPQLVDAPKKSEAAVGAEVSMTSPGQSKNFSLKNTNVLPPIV

[10] = Toxicity in okadaic acid-induced cognitive impairment C57BL/6 mouse assessed as change in serum CRE level at 10 to 30 mg/kg,po once daily for 2 weeks; type: organism-based; conditions: in vivo, 336 h, dose 10-30 mg/kg
[11] = target: Dual specificity tyrosine-phosphorylation-regulated kinase 2 (Homo sapiens) (UniProt Q92630); experiment: Inhibition of DYRK2 (unknown origin) at 1 uM preincubated with enzyme for 10 mins followed by substrate and ATP addition measured after 60 mins by ADP-Glo reagent based assay relative to control; conditions: time 70.0 min
Dual specificity tyrosine-phosphorylation-regulated kinase 2 (Homo sapiens), sequence (Q92630 whole entry): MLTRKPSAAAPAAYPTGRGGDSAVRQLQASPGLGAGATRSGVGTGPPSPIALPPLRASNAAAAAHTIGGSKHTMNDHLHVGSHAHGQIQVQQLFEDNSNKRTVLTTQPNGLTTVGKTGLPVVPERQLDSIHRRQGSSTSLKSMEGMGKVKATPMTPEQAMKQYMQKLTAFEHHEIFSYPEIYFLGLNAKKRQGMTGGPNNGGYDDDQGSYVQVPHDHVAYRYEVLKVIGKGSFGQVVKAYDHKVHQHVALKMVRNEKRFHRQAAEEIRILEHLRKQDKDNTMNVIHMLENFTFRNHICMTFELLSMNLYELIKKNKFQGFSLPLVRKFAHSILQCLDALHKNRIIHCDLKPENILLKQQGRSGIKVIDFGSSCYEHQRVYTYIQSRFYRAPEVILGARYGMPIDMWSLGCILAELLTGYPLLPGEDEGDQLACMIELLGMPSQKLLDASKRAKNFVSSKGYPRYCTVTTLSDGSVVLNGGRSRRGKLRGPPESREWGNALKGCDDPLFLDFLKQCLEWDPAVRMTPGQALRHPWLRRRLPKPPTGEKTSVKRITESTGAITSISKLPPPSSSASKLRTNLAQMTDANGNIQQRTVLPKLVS

[12] = target: CYP2C9 (Homo sapiens, UniProt P11712); experiment: Inhibition of CYP2C9 in human liver microsomes using diclofenac as substrate at 10 uM preincubated for 10 mins followed by NADPH addition and measured after 40 mins by LC-MS/MS analysis relative to control; type: ADME, Microsome; conditions: probe diclofenac, time 50 min
CYP2C9, sequence (P11712 whole entry): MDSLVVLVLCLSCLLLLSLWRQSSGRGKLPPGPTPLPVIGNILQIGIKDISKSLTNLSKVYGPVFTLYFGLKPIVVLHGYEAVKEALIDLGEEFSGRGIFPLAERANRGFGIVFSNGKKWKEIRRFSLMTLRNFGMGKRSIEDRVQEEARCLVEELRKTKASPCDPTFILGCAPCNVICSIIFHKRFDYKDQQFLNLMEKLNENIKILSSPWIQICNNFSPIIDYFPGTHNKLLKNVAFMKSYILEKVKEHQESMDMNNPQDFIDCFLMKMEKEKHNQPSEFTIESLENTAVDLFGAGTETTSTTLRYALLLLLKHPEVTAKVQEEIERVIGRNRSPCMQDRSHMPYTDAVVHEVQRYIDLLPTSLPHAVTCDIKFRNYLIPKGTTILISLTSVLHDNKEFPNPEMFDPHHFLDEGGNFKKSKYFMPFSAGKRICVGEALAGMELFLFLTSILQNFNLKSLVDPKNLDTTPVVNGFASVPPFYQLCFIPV

[13] = target: CYP2C19 (Homo sapiens, UniProt P33261); experiment: Inhibition of CYP2C19 in human liver microsomes using mephenytoin as substrate at 10 uM preincubated for 10 mins followed by NADPH addition and measured after 40 mins by LC-MS/MS analysis relative to control; type: ADME, Microsome; conditions: probe mephenytoin, time 50 min
CYP2C19, sequence (P33261 whole entry): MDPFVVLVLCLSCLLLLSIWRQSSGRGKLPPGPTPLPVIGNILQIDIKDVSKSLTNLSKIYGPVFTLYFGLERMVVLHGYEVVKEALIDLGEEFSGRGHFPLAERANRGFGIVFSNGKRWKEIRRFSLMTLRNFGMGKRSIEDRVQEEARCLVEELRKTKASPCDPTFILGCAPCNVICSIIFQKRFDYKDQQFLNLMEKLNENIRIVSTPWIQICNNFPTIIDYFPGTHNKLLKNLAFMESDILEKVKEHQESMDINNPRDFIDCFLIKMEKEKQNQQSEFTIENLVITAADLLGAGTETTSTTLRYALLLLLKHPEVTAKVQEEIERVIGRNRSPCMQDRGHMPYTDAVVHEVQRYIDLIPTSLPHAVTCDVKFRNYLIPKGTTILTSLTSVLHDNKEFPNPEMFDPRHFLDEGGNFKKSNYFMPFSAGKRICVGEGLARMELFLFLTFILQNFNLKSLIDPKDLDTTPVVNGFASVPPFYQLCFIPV

[14] = tested on: Mus musculus; experiment: Antialzheimer activity in okadaic acid-induced cognitive impairment C57BL/6 mouse assessed as change in swimming speed at 10 to 30 mg/kg,po once daily for 2 weeks by Morris water maze test; type: functional, organism-based; conditions: dose 10-30 mg/kg
[15] = Acute toxicity in C57BL/6 mouse assessed as histopathological change in kidney at 500 mg/kg,po observed after 14 days by hematoxylin-eosin staining based analysis; type: organism-based; conditions: in vivo, 336 h, time 14 day
[16] = tested on: Mus musculus; experiment: Antialzheimer activity in okadaic acid-induced cognitive impairment C57BL/6 mouse assessed as downregulation of Tau phosphorylation at Thr212 residue in hippocampal DG region at 10 to 30 mg/kg,po once daily for 2 weeks by immunohistochemical staining analysis; type: functional, organism-based; conditions: dose 10-30 mg/kg
[17] = Drug concentration in Sprague-Dawley rat plasma at 10 mg/kg,po measured after 6 hrs by LC-MS/MS analysis; type: ADME, organism-based
[18] = target: Cytochrome P450 2C19 (Homo sapiens, UniProt P33261); experiment: Inhibition of CYP2C19 in human liver microsomes using mephenytoin as substrate preincubated for 10 mins followed by NADPH addition and measured after 40 mins by LC-MS/MS analysis; type: ADME, Microsome
Cytochrome P450 2C19, sequence (P33261 whole entry): as above

[19] = target: Dual specificity tyrosine-phosphorylation-regulated kinase 2 (Homo sapiens, UniProt Q92630); experiment: Inhibition of DYRK2 (unknown origin) preincubated with enzyme for 10 mins followed by substrate and ATP addition measured after 60 mins by ADP-Glo reagent based assay
Dual specificity tyrosine-phosphorylation-regulated kinase 2, sequence (Q92630 whole entry): as the sequence (Q92630 whole entry) above

[20] = tested on: SH-SY5Y; experiment: Cytotoxicity against human SH-SY5Y cells expressing human Tau P301L mutant at 0.15625 to 10 uM incubated for 24 hrs by MTT assay; type: functional, cell-based; conditions: dose 0.15625-10 µM
[21] = Toxicity in okadaic acid-induced cognitive impairment C57BL/6 mouse assessed as change in serum ALT level at 10 to 30 mg/kg,po once daily for 2 weeks; type: organism-based; conditions: in vivo, 336 h, dose 10-30 mg/kg
[22] = target: CYP1A2 (Homo sapiens, UniProt P05177); experiment: Inhibition of CYP1A2 in human liver microsomes using phenacetin as substrate at 10 uM preincubated for 10 mins followed by NADPH addition and measured after 40 mins by LC-MS/MS analysis relative to control; type: ADME, Microsome; conditions: probe phenacetin, time 50 min
CYP1A2, sequence (P05177 whole entry): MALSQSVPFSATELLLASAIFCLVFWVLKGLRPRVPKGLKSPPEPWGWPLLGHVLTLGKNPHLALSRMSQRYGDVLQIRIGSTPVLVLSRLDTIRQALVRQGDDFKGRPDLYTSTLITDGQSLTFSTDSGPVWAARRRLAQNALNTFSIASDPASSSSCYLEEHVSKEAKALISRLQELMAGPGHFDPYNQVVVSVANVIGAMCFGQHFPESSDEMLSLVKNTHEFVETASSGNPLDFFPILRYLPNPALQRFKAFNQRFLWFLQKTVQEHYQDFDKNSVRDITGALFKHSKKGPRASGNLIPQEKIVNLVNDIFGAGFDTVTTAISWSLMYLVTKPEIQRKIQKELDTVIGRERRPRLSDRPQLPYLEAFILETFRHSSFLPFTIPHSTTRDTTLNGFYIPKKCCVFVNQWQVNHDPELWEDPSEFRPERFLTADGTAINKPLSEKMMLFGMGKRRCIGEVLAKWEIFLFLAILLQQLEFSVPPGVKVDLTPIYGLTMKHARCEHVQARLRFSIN

With `Cc1ccc2c(-c3ccc4ncnc(N[C@H](CO)c5ccccc5)c4c3)c[nH]c2n1` the Activity [1] was “Non-Toxic”, the MRT last at 24 h [2] was 3.81 h and the Activity [3] was “Non-Toxic”. For the same compound, the IC50 [4] was > 10 µM, the concentration at 2 h [5] was 16.8 ng/g and the Activity [6] was “Non-Toxic”. For the same compound, the concentration at 2 h [7] was 141 ng/mL, the Activity [8] was “Non-Toxic” and the inhibition [9] was 102%. The Activity [10] was “Non-Toxic”, the inhibition [11] was 105% and the inhibition at 40 min, 10 µM [12] was 96.5%. For the same compound, the inhibition at 40 min, 10 µM [13] was 96.9%, the Activity [14] was “inactive” and the Activity [15] was “Non-Toxic”. For the same compound, the Activity [16] was “Active”, the concentration at 6 h [17] was 118 ng/mL and the IC50 [18] was 1.03 µM. For the same compound, the IC50 [19] was 0.0142 µM, the Activity [20] was “inactive” and the Activity [21] was “Non-Toxic”. It also gave an inhibition at 40 min, 10 µM [22] of 61.9%.
